SMILES strings stand for the structures.

For one test, the target named is T1, immunocaptured catalase (Homo sapiens, UniProt P04040).
T1 construct: Endogenous catalase activity in cell lysates; endogenous in cells; host or cells: human colorectal cancer cell lines; BE2-M17 human neuroblastoma cells (with or without rotenone)
T1 sequence (P04040 2-527 limits assumed): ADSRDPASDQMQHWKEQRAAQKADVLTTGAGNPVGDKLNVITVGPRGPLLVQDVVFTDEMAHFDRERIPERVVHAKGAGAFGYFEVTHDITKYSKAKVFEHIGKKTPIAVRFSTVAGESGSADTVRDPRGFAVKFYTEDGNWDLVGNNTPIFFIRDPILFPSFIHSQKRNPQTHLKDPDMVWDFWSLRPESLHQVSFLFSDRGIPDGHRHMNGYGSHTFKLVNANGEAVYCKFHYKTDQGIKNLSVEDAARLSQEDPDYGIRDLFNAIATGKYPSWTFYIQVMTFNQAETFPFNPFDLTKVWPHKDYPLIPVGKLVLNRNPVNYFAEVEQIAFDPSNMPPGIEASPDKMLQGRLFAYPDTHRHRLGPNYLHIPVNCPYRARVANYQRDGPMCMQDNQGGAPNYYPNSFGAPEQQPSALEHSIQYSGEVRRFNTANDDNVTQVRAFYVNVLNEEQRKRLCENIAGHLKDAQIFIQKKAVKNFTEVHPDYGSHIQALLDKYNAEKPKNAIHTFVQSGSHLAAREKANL
Nature of the test: Relative specific activity of immunocaptured catalase (SpCAT) after incubation with NaSH. It is filed as biochemical. The conditions noted are these: for effect of NaSH on SpCAT: NaSH 0–50 μM. The protocol: The relative specific activity (activity and quantity) of catalase in the cell lysates was determined using the kit ab118184 from Abcam (Cambridge, MA). The measurements were performed in duplicate as per the manufacturer's protocol. Briefly, catalase in cell lysates (0.1–0.2 mg cell lysates per assay) was immunocaptured within the wells of the microplate. An assay buffer, which contains H2O2 that reacts with a substrate to generate a luminescent product, was added to each well. The presence of catalase in the reaction mixture reduces the production of light and the light produced in each well is thus inversely proportional to the amount of catalase activity. Then, the quantity of catalase was measured by adding to each well an anti-catalase primary detector antibody. After 1 h incubation at RT, the unbound detector antibody was washed away and an HRP-conjugated labelled secondary antibody specific for the primary detector antibody was added to the wells. After 1 h incubation, the wells were again washed and a 3,3′,5,5′-Tetramethylbenzidine (TMB) substrate solution was added to the wells. A blue colour (absorbance at 600 nm) developed in proportion to the amount of catalase bound. Luminescence and absorbance measurements were performed on an EnSpire Multilabel Reader 2300 (PerkinElmer). To check the effect of NaSH on the relative specific activity of catalase, the immunocaptured catalase was incubated with various concentrations of NaSH (0–50 μM) for 5 min at RT before carefully washing twice each well. The protocol above was then followed to determine activity measurement and catalase quantification.

Another test concerns HCT-116 cells. Nature of the test: H2O2 consumption in cell lysates as a function of NaSH concentration. In kind it is biochemical, human. As to conditions: HCT-116 cell lysate; read-out: relative IC50 (rate of H2O2 consumption). The procedure: (§1) CAT activity was measured on an Uvikon 941 spectrophotometer equipped with a temperature controlled water bath (±1 °C) by following the disappearance of H2O2 at 240 nm over 30–120 s at 25 °C. Catalase activity was calculated based on the rate of decomposition of hydrogen peroxide, which is proportional to the reduction of the absorbance at 240 nm. Experiments were carried out in a 3 ml quartz cuvette containing 11.7 mM H2O2 in 50 mM KPi, pH 7.4±1 mM DTPA and the reaction was initiated by adding 0.3–0.6 pmoles of CAT. The effect of biological thiols on the activity of CAT under physiological conditions was determined from a solution of CAT (30–60 nM) preincubated at 25 °C for at least 120 min as a function thiol concentration (0–40 mM for HCys and Cys, 0–100 mM for GSH) in 50 mM KPi, pH 7.4, 1 mM DTPA. Control experiments (biological thiols alone) were also performed in parallel. In each case, 10 μl of the reaction mixture (biological thiols±CAT) was added to the cuvette containing the H2O2 solution to initiate the reaction. Similarly, the effect of biological thiols on the activity of CAT under pathological conditions was determined from a solution of CAT (30–60 nM) containing a 2.124±0.386 molar excess of iron that was preincubated with various concentrations of thiols (0–1 mM) for at least 120 min at 25 °C in 50 mM KP at pH 7.4. The relative half inhibitory concentration (IC50) values were obtained by plotting the relative activity of CAT (A, in per cent) as a function of the concentration of thiol-compounds (RSH) and by fitting the data with the following four parameter logistic equation: A=Amin+(Amax−Amin)/(1+([RSH]/IC50)^n), where Amax is the maximal activity of CAT (constrained at 100%), Amin is the minimum activity achieved at saturating concentration of RSH and n is the Hillslope that characterizes the slope of the curve at its midpoint. The inactivation rate (kinact, min^−1) was extracted from the time course of the inactivation of CAT bioactivity using a fixed concentration of HCys. Accordingly, a solution of CAT (3.5–5 μM) was incubated with 2 mM L-HCys in 50 mM KPi, pH 7.4, 1 mM DTPA. Aliquots (10 μl) were taken at intervals (0–480 min), diluted 1:50 in 50 mM KPi, pH 7.4, 1 mM DTPA and assayed for CAT activity as described above. […] The effect of NaSH on the consumption of H2O2 in cell lysates was determined from a solution of cell lysates (0.5–3 mg ml^−1) incubated on ice with various concentrations of NaSH (0–200 μM). […]

A further test concerns HT-29 Glc−/+ cells. The description is as above. In kind it is biochemical, human. The conditions noted are these: HT-29 Glc−/+ cell lysate (control line); read-out: relative IC50 (rate of H2O2 consumption). The protocol: as §1

For the compound `[Na+].[SH-]` [NaSH], the “response of SpCAT towards NaSH” value at immunocaptured catalase (BE2-M17 cells versus rotenone-treated BE2-M17 cells) was “similar”. The “effect of NaSH on SpCAT” value at immunocaptured catalase (HCT-15 cancer cells) is reported as “inhibited”; on immunocaptured catalase (HCT-116 cancer cells), “almost unaffected”; at immunocaptured catalase (HT-29 Glc−/+ control cell line) it was “almost unaffected”; at immunocaptured catalase (MDST8 cancer cells), “activated”. Further, the IC50 with HCT-116 cells worked out at 1800 ± 1500 nM; in the test on HT-29 Glc−/+ cells, 15 ± 5.3 µM.

In general, IC50 refers to the concentration that inhibits the measured activity by half.

For the origin of these results see publication PMC5116089, “Sulfheme formation during homocysteine S-oxygenation by catalase in cancers and neurodegenerative diseases” (Nature Communications, 2016).
